According to the supplement of paper PMC13380429:
± gives the standard deviation of the averaged measurements.

Tests used:
Conditions in all cases: 72 h
[1] = test system: Caco-2; assay: cell viability relative to DMSO; higher = less toxic
[2] = test system: Calu-3; assay: as above
[3] = test system: HepG2; assay: as above
[4] = test system: U2OS; assay: as above
[5] = test system: Vero E6; assay: as above
[6] = test system: Caco-2; assay: relative viability EC50 (midpoint between 100% and the lowest measured viability); higher = less toxic
[7] = test system: Calu-3; assay: as above
[8] = test system: HepG2; assay: as above
[9] = test system: U2OS; assay: as above
[10] = test system: Vero E6; assay: as above
[11] = test system: Caco-2; assay: drug sensitivity score (DSS) for viability; higher = more toxic; extreme values may be limits of the assay
[12] = test system: Calu-3; assay: as above
[13] = test system: HepG2; assay: as above
[14] = test system: U2OS; assay: as above
[15] = test system: Vero E6; assay: as above

SMILES: COc1cccc(-n2nc(C(=O)O)cc2-c2ccc(C3CCCCC3)c(Cl)c2)c1 [TC-LPA5-4]
- cell viability ([1]; 1 nM): 87.4%
- cell viability ([1]; 10 nM): 93.6%
- cell viability ([1]; 100 nM): 96.4%
- cell viability ([1]; 1000 nM): 97.7%
- cell viability ([1]; 10000 nM): 101%
- cell viability ([2]; 1 nM): 97.4%
- cell viability ([2]; 10 nM): 94.5%
- cell viability ([2]; 100 nM): 101%
- cell viability ([2]; 1000 nM): 95.8%
- cell viability ([2]; 10000 nM): 108%
- cell viability ([3]; 1 nM): 111%
- cell viability ([3]; 10 nM): 92.6%
- cell viability ([3]; 100 nM): 101%
- cell viability ([3]; 1000 nM): 104%
- cell viability ([3]; 10000 nM): 102%
- cell viability ([4]; 1 nM): 100%
- cell viability ([4]; 10 nM): 96.4%
- cell viability ([4]; 100 nM): 97.8%
- cell viability ([4]; 1000 nM): 94.9%
- cell viability ([4]; 10000 nM): 94.9%
- cell viability ([5]; 1 nM): 102%
- cell viability ([5]; 10 nM): 104%
- cell viability ([5]; 100 nM): 103%
- cell viability ([5]; 1000 nM): 99.6%
- cell viability ([5]; 10000 nM): 96%
- relative viability EC50 [6]: > 10 µM
- relative viability EC50 [7]: > 10 µM
- relative viability EC50 [8]: > 10 µM
- relative viability EC50 [9]: > 10 µM
- relative viability EC50 [10]: > 10 µM
- drug sensitivity score [11]: 0
- drug sensitivity score [12]: 0
- drug sensitivity score [13]: 0
- drug sensitivity score [14]: 0
- drug sensitivity score [15]: 0

SMILES: COc1ccc(-c2cnc3c(-c4cccc5ncccc45)cnn3c2)cc1 [ML347]
- cell viability ([1]; 1 nM): 107 ± 14%
- cell viability ([1]; 10 nM): 100 ± 5.3%
- cell viability ([1]; 100 nM): 96.5 ± 2%
- cell viability ([1]; 1000 nM): 96.05 ± 0.35%
- cell viability ([1]; 10000 nM): 98.9 ± 8.6%
- cell viability ([2]; 1 nM): 106 ± 9.3%
- cell viability ([2]; 10 nM): 101 ± 7.9%
- cell viability ([2]; 100 nM): 99.5 ± 2.8%
- cell viability ([2]; 1000 nM): 101 ± 4.9%
- cell viability ([2]; 10000 nM): 93.4 ± 8.5%
- cell viability ([3]; 1 nM): 105 ± 4%
- cell viability ([3]; 10 nM): 96 ± 9.3%
- cell viability ([3]; 100 nM): 99.3 ± 3.2%
- cell viability ([3]; 1000 nM): 98.1 ± 0.57%
- cell viability ([3]; 10000 nM): 97.2 ± 6.9%
- cell viability ([4]; 1 nM): 101 ± 2%
- cell viability ([4]; 10 nM): 100 ± 3.1%
- cell viability ([4]; 100 nM): 105 ± 6.3%
- cell viability ([4]; 1000 nM): 102 ± 1.8%
- cell viability ([4]; 10000 nM): 96.8 ± 4.3%
- cell viability ([5]; 1 nM): 102%
- cell viability ([5]; 10 nM): 100%
- cell viability ([5]; 100 nM): 99%
- cell viability ([5]; 1000 nM): 99.3%
- cell viability ([5]; 10000 nM): 105%
- relative viability EC50 [6]: > 10 µM
- relative viability EC50 [7]: > 10 µM
- relative viability EC50 [8]: > 10 µM
- relative viability EC50 [9]: > 10 µM
- relative viability EC50 [10]: > 10 µM
- drug sensitivity score [11]: 0
- drug sensitivity score [12]: 0.1 ± 0.14
- drug sensitivity score [13]: 0
- drug sensitivity score [14]: 0
- drug sensitivity score [15]: 0

SMILES: COc1cccc(OC)c1C(=O)N[C@@H]1C(=O)N2[C@@H]1SC(C)(C)[C@@H]2C(=O)O [methicillin]
- cell viability ([1]; 1 nM): 95.2%
- cell viability ([1]; 10 nM): 97.2%
- cell viability ([1]; 100 nM): 101%
- cell viability ([1]; 1000 nM): 91.4%
- cell viability ([1]; 10000 nM): 96.5%
- cell viability ([2]; 1 nM): 105%
- cell viability ([2]; 10 nM): 99.1%
- cell viability ([2]; 100 nM): 97%
- cell viability ([2]; 1000 nM): 99.1%
- cell viability ([2]; 10000 nM): 102%
- cell viability ([3]; 1 nM): 96%
- cell viability ([3]; 10 nM): 96.1%
- cell viability ([3]; 100 nM): 87%
- cell viability ([3]; 1000 nM): 106%
- cell viability ([3]; 10000 nM): 107%
- cell viability ([4]; 1 nM): 105%
- cell viability ([4]; 10 nM): 94.7%
- cell viability ([4]; 100 nM): 99.6%
- cell viability ([4]; 1000 nM): 99%
- cell viability ([4]; 10000 nM): 99.8%
- cell viability ([5]; 1 nM): 107%
- cell viability ([5]; 10 nM): 98.6%
- cell viability ([5]; 100 nM): 94.9%
- cell viability ([5]; 1000 nM): 102%
- cell viability ([5]; 10000 nM): 87.9%
- relative viability EC50 [6]: > 10 µM
- relative viability EC50 [7]: > 10 µM
- relative viability EC50 [8]: > 10 µM
- relative viability EC50 [9]: > 10 µM
- relative viability EC50 [10]: > 10 µM
- drug sensitivity score [11]: 0
- drug sensitivity score [12]: 0
- drug sensitivity score [13]: 0
- drug sensitivity score [14]: 0
- drug sensitivity score [15]: 0

SMILES: CN1CC[C@@H]2CN3CCc4cccc(c43)[C@@H]2C1 [SDZ-SER-082]
- cell viability ([1]; 1 nM): 86.8%
- cell viability ([1]; 10 nM): 98.7%
- cell viability ([1]; 100 nM): 93.4%
- cell viability ([1]; 1000 nM): 103%
- cell viability ([1]; 10000 nM): 100%
- cell viability ([2]; 1 nM): 95.7%
- cell viability ([2]; 10 nM): 102%
- cell viability ([2]; 100 nM): 114%
- cell viability ([2]; 1000 nM): 94.9%
- cell viability ([2]; 10000 nM): 100%
- cell viability ([3]; 1 nM): 106%
- cell viability ([3]; 10 nM): 103%
- cell viability ([3]; 100 nM): 104%
- cell viability ([3]; 1000 nM): 95.8%
- cell viability ([3]; 10000 nM): 110%
- cell viability ([4]; 1 nM): 98.1%
- cell viability ([4]; 10 nM): 97.8%
- cell viability ([4]; 100 nM): 98.8%
- cell viability ([4]; 1000 nM): 100%
- cell viability ([4]; 10000 nM): 95.2%
- cell viability ([5]; 1 nM): 95.1%
- cell viability ([5]; 10 nM): 92.7%
- cell viability ([5]; 100 nM): 95.6%
- cell viability ([5]; 1000 nM): 92.5%
- cell viability ([5]; 10000 nM): 103%
- relative viability EC50 [6]: > 10 µM
- relative viability EC50 [7]: > 10 µM
- relative viability EC50 [8]: > 10 µM
- relative viability EC50 [9]: > 10 µM
- relative viability EC50 [10]: > 10 µM
- drug sensitivity score [11]: 0
- drug sensitivity score [12]: 0
- drug sensitivity score [13]: 0
- drug sensitivity score [14]: 0
- drug sensitivity score [15]: 0

SMILES: CCCCC1(COC(=O)CCC(=O)O)C(=O)N(c2ccccc2)N(c2ccccc2)C1=O [suxibuzone]
- cell viability ([1]; 1 nM): 87.1%
- cell viability ([1]; 10 nM): 104%
- cell viability ([1]; 100 nM): 94%
- cell viability ([1]; 1000 nM): 91.8%
- cell viability ([1]; 10000 nM): 84.1%
- cell viability ([2]; 1 nM): 104%
- cell viability ([2]; 10 nM): 101%
- cell viability ([2]; 100 nM): 95.2%
- cell viability ([2]; 1000 nM): 99.2%
- cell viability ([2]; 10000 nM): 95.6%
- cell viability ([3]; 1 nM): 122%
- cell viability ([3]; 10 nM): 99.5%
- cell viability ([3]; 100 nM): 102%
- cell viability ([3]; 1000 nM): 103%
- cell viability ([3]; 10000 nM): 94.6%
- cell viability ([4]; 1 nM): 96.4%
- cell viability ([4]; 10 nM): 101%
- cell viability ([4]; 100 nM): 96.5%
- cell viability ([4]; 1000 nM): 102%
- cell viability ([4]; 10000 nM): 95.5%
- cell viability ([5]; 1 nM): 110%
- cell viability ([5]; 10 nM): 103%
- cell viability ([5]; 100 nM): 103%
- cell viability ([5]; 1000 nM): 92.4%
- cell viability ([5]; 10000 nM): 102%
- relative viability EC50 [6]: > 10 µM
- relative viability EC50 [7]: > 10 µM
- relative viability EC50 [8]: > 10 µM
- relative viability EC50 [9]: > 10 µM
- relative viability EC50 [10]: > 10 µM
- drug sensitivity score [11]: 0.2
- drug sensitivity score [12]: 0
- drug sensitivity score [13]: 0
- drug sensitivity score [14]: 0
- drug sensitivity score [15]: 0

SMILES: CN1CCCC(n2nc(Cc3ccc(Cl)cc3)c3ccccc3c2=O)CC1 (stereo not given) [azelastine]
- cell viability ([1]; 1 nM): 95.2%
- cell viability ([1]; 10 nM): 91.2%
- cell viability ([1]; 100 nM): 98.2%
- cell viability ([1]; 1000 nM): 94.2%
- cell viability ([1]; 10000 nM): 87%
- cell viability ([2]; 1 nM): 97.1%
- cell viability ([2]; 10 nM): 96.7%
- cell viability ([2]; 100 nM): 105%
- cell viability ([2]; 1000 nM): 114%
- cell viability ([2]; 10000 nM): 92.3%
- cell viability ([3]; 1 nM): 113%
- cell viability ([3]; 10 nM): 91.5%
- cell viability ([3]; 100 nM): 101%
- cell viability ([3]; 1000 nM): 89.3%
- cell viability ([3]; 10000 nM): 89.2%
- cell viability ([4]; 1 nM): 104%
- cell viability ([4]; 10 nM): 111%
- cell viability ([4]; 100 nM): 98.8%
- cell viability ([4]; 1000 nM): 100%
- cell viability ([4]; 10000 nM): 93.4%
- cell viability ([5]; 1 nM): 108%
- cell viability ([5]; 10 nM): 95%
- cell viability ([5]; 100 nM): 110%
- cell viability ([5]; 1000 nM): 103%
- cell viability ([5]; 10000 nM): 94.9%
- relative viability EC50 [6]: > 10 µM
- relative viability EC50 [7]: > 10 µM
- relative viability EC50 [8]: > 10 µM
- relative viability EC50 [9]: > 10 µM
- relative viability EC50 [10]: > 10 µM
- drug sensitivity score [11]: 0
- drug sensitivity score [12]: 0
- drug sensitivity score [13]: 0.3
- drug sensitivity score [14]: 0
- drug sensitivity score [15]: 0

SMILES: Cc1nc2c(O)cccc2c(=O)[nH]1 [NU-1025]
- cell viability ([1]; 1 nM): 101%
- cell viability ([1]; 10 nM): 92.4%
- cell viability ([1]; 100 nM): 96.6%
- cell viability ([1]; 1000 nM): 96.7%
- cell viability ([1]; 10000 nM): 101%
- cell viability ([2]; 1 nM): 96.6%
- cell viability ([2]; 10 nM): 99.6%
- cell viability ([2]; 100 nM): 102%
- cell viability ([2]; 1000 nM): 106%
- cell viability ([2]; 10000 nM): 99.8%
- cell viability ([3]; 1 nM): 104%
- cell viability ([3]; 10 nM): 109%
- cell viability ([3]; 100 nM): 98.4%
- cell viability ([3]; 1000 nM): 109%
- cell viability ([3]; 10000 nM): 101%
- cell viability ([4]; 1 nM): 104%
- cell viability ([4]; 10 nM): 100%
- cell viability ([4]; 100 nM): 100%
- cell viability ([4]; 1000 nM): 99.9%
- cell viability ([4]; 10000 nM): 101%
- cell viability ([5]; 1 nM): 99.7%
- cell viability ([5]; 10 nM): 102%
- cell viability ([5]; 100 nM): 98.7%
- cell viability ([5]; 1000 nM): 100%
- cell viability ([5]; 10000 nM): 98.1%
- relative viability EC50 [6]: > 10 µM
- relative viability EC50 [7]: > 10 µM
- relative viability EC50 [8]: > 10 µM
- relative viability EC50 [9]: > 10 µM
- relative viability EC50 [10]: > 10 µM
- drug sensitivity score [11]: 0
- drug sensitivity score [12]: 0
- drug sensitivity score [13]: 0
- drug sensitivity score [14]: 0
- drug sensitivity score [15]: 0
